Read-outs that look alike come from different tables or passages of the source.
Tests used:
Type in all cases: cell-based
[1] = target: T1, protein kinases (human kinome) (Homo sapiens, UniProt O00444)
T1 sequence (O00444 1-970): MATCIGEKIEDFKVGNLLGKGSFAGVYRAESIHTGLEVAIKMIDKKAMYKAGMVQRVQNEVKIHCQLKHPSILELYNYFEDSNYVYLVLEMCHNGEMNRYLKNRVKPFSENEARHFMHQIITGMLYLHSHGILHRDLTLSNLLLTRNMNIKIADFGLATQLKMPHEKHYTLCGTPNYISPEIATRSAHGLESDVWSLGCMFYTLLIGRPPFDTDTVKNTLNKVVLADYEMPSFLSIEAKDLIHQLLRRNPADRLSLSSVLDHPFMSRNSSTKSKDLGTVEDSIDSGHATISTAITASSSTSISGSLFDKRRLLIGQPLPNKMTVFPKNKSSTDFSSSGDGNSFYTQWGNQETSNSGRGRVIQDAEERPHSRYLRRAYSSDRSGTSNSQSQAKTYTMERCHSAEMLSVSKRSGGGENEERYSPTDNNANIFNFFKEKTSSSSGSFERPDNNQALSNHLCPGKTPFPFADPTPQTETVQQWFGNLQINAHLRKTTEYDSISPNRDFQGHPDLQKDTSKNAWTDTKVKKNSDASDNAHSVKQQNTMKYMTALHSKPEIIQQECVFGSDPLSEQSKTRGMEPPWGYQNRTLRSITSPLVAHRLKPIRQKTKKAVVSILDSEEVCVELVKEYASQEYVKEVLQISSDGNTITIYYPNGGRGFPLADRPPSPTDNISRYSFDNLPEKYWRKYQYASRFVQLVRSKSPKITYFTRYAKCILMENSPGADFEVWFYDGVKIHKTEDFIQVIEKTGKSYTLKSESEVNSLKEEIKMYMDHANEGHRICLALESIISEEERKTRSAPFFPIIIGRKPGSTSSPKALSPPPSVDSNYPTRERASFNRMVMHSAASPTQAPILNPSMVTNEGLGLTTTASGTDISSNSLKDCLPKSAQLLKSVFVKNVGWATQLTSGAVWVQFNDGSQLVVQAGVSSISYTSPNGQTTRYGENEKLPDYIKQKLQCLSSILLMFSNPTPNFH

[2] = target: protein kinases (human kinome) (Homo sapiens, UniProt O14874); conditions: BCKDK (O14874), experiment wp160, 1 hr
[3] = target: T2, protein kinases (human kinome) (Homo sapiens, UniProt Q9H8X2); conditions: IPPK (Q9H8X2)
T2 sequence (Q9H8X2 1-491): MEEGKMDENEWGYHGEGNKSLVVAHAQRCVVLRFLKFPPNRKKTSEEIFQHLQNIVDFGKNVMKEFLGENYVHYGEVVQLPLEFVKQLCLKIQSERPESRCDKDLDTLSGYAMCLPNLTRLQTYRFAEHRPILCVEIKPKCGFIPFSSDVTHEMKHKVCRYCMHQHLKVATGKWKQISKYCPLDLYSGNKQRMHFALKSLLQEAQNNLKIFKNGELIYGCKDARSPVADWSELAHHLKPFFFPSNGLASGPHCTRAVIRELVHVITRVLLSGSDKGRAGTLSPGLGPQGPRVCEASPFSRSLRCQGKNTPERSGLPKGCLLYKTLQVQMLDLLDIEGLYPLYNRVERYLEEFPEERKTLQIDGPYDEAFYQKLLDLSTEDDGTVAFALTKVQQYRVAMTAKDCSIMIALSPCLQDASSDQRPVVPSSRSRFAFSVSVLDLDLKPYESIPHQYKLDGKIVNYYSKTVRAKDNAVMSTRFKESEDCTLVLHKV

For CC(C)S(=O)(=O)c1ccccc1Nc1nc(Nc2ccc(N3CCN(CCOCCNC(=O)CNc4cccc5c4C(=O)N(C4CCC(=O)NC4=O)C5=O)CC3)cc2)ncc1Cl (centres unmarked) [SK.3.91], the “logFC PLK4” value ([1]; Accession O00444, experiment wp103, direction down) was −1.243, the “logFC PLK4” value ([1]; Accession O00444, experiment wp107, direction down) was −1.036 and the “logFC PLK4” value ([1]; Accession O00444, experiment wp133, 1 hr, direction down) was −0.726. For the same molecule, the “logFC PLK4” value ([1]; Accession O00444, experiment wp133, 2 hr, direction down) was −1.523, the “logFC PLK4” value ([1]; Accession O00444, experiment wp133, 4 hr, direction down) was −2.258 and the “logFC PLK4” value ([1]; Accession O00444, experiment wp160, 2 hr, direction down) was −0.9266. The “logFC PLK4” value ([1]; Accession O00444, experiment wp160, 4 hr, direction down) was −1.169, the “logFC PLK4” value ([1]; PLK4 (O00444), experiment wp133, 1 hr) was −0.726 and the “logFC PLK4” value ([1]; PLK4 (O00444), experiment wp133, 2 hr) was −1.523. The “logFC PLK4” value ([1]; PLK4 (O00444), experiment wp133, 4 hr) was −2.258, the “logFC PLK4” value ([1]; PLK4 (O00444), experiment wp160, 2 hr) was −0.9266 and the “logFC PLK4” value ([1]; PLK4 (O00444), experiment wp160, 4 hr) was −1.169. The “logFC PLK4 (O00444)” value ([1]; experiment wp103) was −1.243, the “logFC PLK4 (O00444)” value ([1]; experiment wp107) was −1.036 and the logFC [2] was −0.8683. It also gave a logFC ([2]; direction down) of −0.8683, a logFC ([3]; experiment wp103) of −0.4729 and a logFC ([3]; experiment wp107) of −1.001. It also gave a logFC ([3]; experiment wp114) of −0.7881 and a logFC ([3]; experiment wp133, 4 hr) of −0.4816.

From patent US20240269139A1, “COMPOUNDS FOR TARGETED PROTEIN DEGRADATION OF KINASES” (DANA-FARBER CANCER INSTITUTE, INC., priority 2020, published 2024)
